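Cells were grown in 96-well plates and exposed to each compound for 48 hours at five concentrations; endpoints were interpolated linearly between bracketing concentrations, or set to the highest concentration if not reached. GI50: concentration for 50% inhibition of growth.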 Activity calls are given as the source filed them. No stated cut-off is given here; in the data, active = GI50 up to about 1.1 µM and inactive = higher.
What was measured:
Assay in all cases: inhibition of tumour cell growth, NCI panel, 48 h
786-0 = system: 786-0
A498 = system: A498
A549 = system: A549
ACHN = system: ACHN
BT-549 = system: BT-549
CAKI-1 = system: CAKI-1
CCRF-CEM = system: CCRF-CEM
COLO 205 = system: COLO 205
DLD-1 = system: DLD-1
DMS-114 = system: DMS-114
DMS-273 = system: DMS-273
DU-145 = system: DU-145
EKVX = system: EKVX
HCC 2998 = system: HCC 2998
HCT-116 = system: HCT-116
HCT-15 = system: HCT-15
HL-60 = system: HL-60
HOP-18 = system: HOP-18
HOP-62 = system: HOP-62
HOP-92 = system: HOP-92
HT-29 = system: HT-29
Hs-578T = system: Hs-578T
IGROV-1 = system: IGROV-1
K562 = system: K562
KM-20L2 = system: KM-20L2
KM12 = system: KM12
LOX IMVI = system: LOX IMVI
LXFL 529 = system: LXFL 529
M14 = system: M14
M19-MEL = system: M19-MEL
MCF7 = system: MCF7
MDA-MB-231 = system: MDA-MB-231
MDA-MB-435 = system: MDA-MB-435
MDA-N = system: MDA-N
MOLT-4 = system: MOLT-4
Malme-3M = system: Malme-3M
NCI-H226 = system: NCI-H226
NCI-H23 = system: NCI-H23
NCI-H460 = system: NCI-H460
NCI-H522 = system: NCI-H522
NCI/ADR-RES = system: NCI/ADR-RES
OVCAR-3 = system: OVCAR-3
OVCAR-4 = system: OVCAR-4
OVCAR-5 = system: OVCAR-5
OVCAR-8 = system: OVCAR-8
PC-3 = system: PC-3
RPMI-8226 = system: RPMI-8226
RXF 393 = system: RXF 393
SF-268 = system: SF-268
SF-295 = system: SF-295
SF-539 = system: SF-539
SK-MEL-28 = system: SK-MEL-28
SK-MEL-2 = system: SK-MEL-2
SK-MEL-5 = system: SK-MEL-5
SK-OV-3 = system: SK-OV-3
SN12C = system: SN12C
SNB-19 = system: SNB-19
SNB-75 = system: SNB-75
SNB-78 = system: SNB-78
SR = system: SR
SW-620 = system: SW-620
T47D = system: T47D
TK-10 = system: TK-10
U-251 = system: U-251
UACC-257 = system: UACC-257
UACC-62 = system: UACC-62
UO-31 = system: UO-31
XF498 = system: XF498
RXF 631 = system: RXF 631

In the case of `CS(=O)(=O)OCCN(CCOS(C)(=O)=O)c1ccc(/C=N/c2ccc(-c3csc(COc4ccccc4)n3)cc2)cc1`, the GI50 (786-0) is reported as 0.429 µM (active), the GI50 (A498) is reported as 2.6 µM (inactive) and the GI50 (A549) is reported as 3.21 µM (inactive). For the same molecule, the GI50 (ACHN) was 0.407 µM (active), the GI50 (BT-549) was 10.7 µM (inactive) and the GI50 (CAKI-1) was 0.853 µM (active). The GI50 (CCRF-CEM) was 0.587 µM (active), the GI50 (COLO 205) was 2.07 µM (inactive) and the GI50 (DLD-1) was 13.1 µM (inactive). The GI50 (DMS-114) was 5.85 µM (inactive), the GI50 (DMS-273) was 0.46 µM (active) and the GI50 (DU-145) was 1.64 µM (inactive). The GI50 (EKVX) was 5.5 µM (inactive), the GI50 (HCC 2998) was 2.26 µM (inactive) and the GI50 (HCT-116) was 12.6 µM (inactive). For the same molecule, the GI50 (HCT-15) was 8.51 µM, the GI50 (HL-60) was 0.817 µM (active) and the GI50 (HOP-18) was 5.25 µM (inactive). For the same molecule, the GI50 (HOP-62) was 1.32 µM (inactive), the GI50 (HOP-92) was 15.6 µM (inactive) and the GI50 (HT-29) was 4.31 µM (inactive). For the same molecule, the GI50 (Hs-578T) was 15.1 µM (inactive), the GI50 (IGROV-1) was 12.6 µM (inactive) and the GI50 (K562) was 5.02 µM (inactive). For the same molecule, the GI50 (KM-20L2) was 3.14 µM (inactive), the GI50 (KM12) was 4.78 µM (inactive) and the GI50 (LOX IMVI) was 4.27 µM (inactive). For the same molecule, the GI50 (LXFL 529) was 12.1 µM (inactive), the GI50 (M14) was 5.6 µM (inactive) and the GI50 (M19-MEL) was 13.4 µM (inactive). The GI50 (MCF7) was 5.42 µM (inactive), the GI50 (MDA-MB-231) was 17 µM (inactive) and the GI50 (MDA-MB-435) was 12.4 µM (inactive). The GI50 (MDA-N) was 11 µM (inactive), the GI50 (MOLT-4) was 0.271 µM (active) and the GI50 (Malme-3M) was 12.8 µM (inactive). For the same molecule, the GI50 (NCI-H226) was 2.66 µM (inactive), the GI50 (NCI-H23) was 2.21 µM (inactive) and the GI50 (NCI-H460) was 0.0708 µM (active). The GI50 (NCI-H522) was 0.295 µM (active), the GI50 (NCI/ADR-RES) was 10.1 µM (inactive) and the GI50 (OVCAR-3) was 1.24 µM (inactive). The GI50 (OVCAR-4) was 14.8 µM (inactive), the GI50 (OVCAR-5) was 3.73 µM (inactive) and the GI50 (OVCAR-8) was 6.17 µM (inactive). For the same molecule, the GI50 (PC-3) was 7.06 µM (inactive), the GI50 (RPMI-8226) was 4.47 µM (inactive) and the GI50 (RXF 393) was 0.461 µM (active). The GI50 (SF-268) was 2.49 µM (inactive), the GI50 (SF-295) was 0.807 µM (active) and the GI50 (SF-539) was 2.86 µM (inactive). For the same molecule, the GI50 (SK-MEL-28) was 12.7 µM (inactive), the GI50 (SK-MEL-2) was 15.7 µM (inactive) and the GI50 (SK-MEL-5) was 10.7 µM (inactive). For the same molecule, the GI50 (SK-OV-3) was 1.69 µM (inactive), the GI50 (SN12C) was 5.14 µM (inactive) and the GI50 (SNB-19) was 9.16 µM (inactive). For the same molecule, the GI50 (SNB-75) was 1.9 µM (inactive), the GI50 (SNB-78) was 18.7 µM (inactive) and the GI50 (SR) was 0.222 µM (active). The GI50 (SW-620) was 8.09 µM (inactive), the GI50 (T47D) was 1.32 µM (inactive) and the GI50 (TK-10) was 3.05 µM (inactive). The GI50 (U-251) was 7.24 µM (inactive), the GI50 (UACC-257) was 10.2 µM (inactive) and the GI50 (UACC-62) was 1.87 µM (inactive). For the same molecule, the GI50 (UO-31) was 0.65 µM (active) and the GI50 (XF498) was 2.12 µM (inactive).

`CN1C(=N\S(=O)(=O)c2ccc(Cl)cc2)/C(=N/N=P(c2ccccc2)(c2ccccc2)c2ccccc2)c2ccccc21` was tested, and the GI50 (A498) was > 100 µM (inactive), the GI50 (A549) was 95.7 µM (inactive) and the GI50 (ACHN) was > 100 µM (inactive). The GI50 (CAKI-1) was > 100 µM (inactive), the GI50 (CCRF-CEM) was > 100 µM (inactive) and the GI50 (COLO 205) was > 100 µM (inactive). The GI50 (DLD-1) was > 100 µM (inactive), the GI50 (DMS-273) was > 100 µM (inactive) and the GI50 (EKVX) was > 100 µM (inactive). The GI50 (HCC 2998) was > 100 µM (inactive), the GI50 (HCT-116) was > 100 µM (inactive) and the GI50 (HCT-15) was greater than 100 µM. For the same molecule, the GI50 (HT-29) was > 100 µM (inactive), the GI50 (IGROV-1) was > 100 µM (inactive) and the GI50 (K562) was > 100 µM (inactive). For the same molecule, the GI50 (KM-20L2) was > 100 µM (inactive), the GI50 (KM12) was > 100 µM (inactive) and the GI50 (LXFL 529) was > 100 µM (inactive). For the same molecule, the GI50 (M14) was > 100 µM (inactive), the GI50 (M19-MEL) was > 100 µM (inactive) and the GI50 (MOLT-4) was > 100 µM (inactive). The GI50 (Malme-3M) was > 100 µM (inactive), the GI50 (NCI-H226) was 73.3 µM (inactive) and the GI50 (NCI-H23) was > 100 µM (inactive). For the same molecule, the GI50 (NCI-H460) was > 100 µM (inactive), the GI50 (NCI-H522) was > 100 µM (inactive) and the GI50 (OVCAR-3) was > 100 µM (inactive). The GI50 (OVCAR-4) was > 100 µM (inactive), the GI50 (OVCAR-5) was > 100 µM (inactive) and the GI50 (OVCAR-8) was > 100 µM (inactive). The GI50 (RXF 393) was > 100 µM (inactive), the GI50 (RXF 631) was > 100 µM (inactive) and the GI50 (SF-268) was > 100 µM (inactive). For the same molecule, the GI50 (SF-295) was > 100 µM (inactive), the GI50 (SF-539) was > 100 µM (inactive) and the GI50 (SK-MEL-28) was > 100 µM (inactive). For the same molecule, the GI50 (SK-MEL-2) was > 100 µM (inactive), the GI50 (SK-MEL-5) was > 100 µM (inactive) and the GI50 (SK-OV-3) was > 100 µM (inactive). For the same molecule, the GI50 (SN12C) was > 100 µM (inactive), the GI50 (SNB-19) was > 100 µM (inactive) and the GI50 (SNB-75) was > 100 µM (inactive). The GI50 (SNB-78) was > 100 µM (inactive), the GI50 (SR) was > 100 µM (inactive) and the GI50 (SW-620) was > 100 µM (inactive). The GI50 (TK-10) was > 100 µM (inactive), the GI50 (U-251) was > 100 µM (inactive) and the GI50 (UACC-257) was > 100 µM (inactive). The GI50 (UACC-62) was > 100 µM (inactive), the GI50 (UO-31) was > 100 µM (inactive) and the GI50 (XF498) was > 100 µM (inactive).

Reference: ChEMBL document CHEMBL1201862, “PubChem BioAssay data set” (2004)
